# Reference: ChEMBL document CHEMBL3885861, “Open TG-GATES”
# Species: Rattus norvegicus
# Experiment: Open TG-GATES - Regimen: Single
# Format: toxicity, organism-based, Sprague-Dawley
# Set-up: regimen Single, gender Male, age 6 weeks
# Conditions: in vivo, po, 0 mg/kg, route gavage, dose level Control; for APTT / Bas / Eos / Fbg / Hb / Ht / Lym / MCH / MCHC / MCV / Mono / Neu / PT / Plat / RBC / Ret / WBC: tissue Blood; for KIDNEY_L / KIDNEY_R / KIDNEY_TOTAL: tissue Kidney; for LIVER: tissue Liver; for A/G / ALP / ALT / AST / BUN / CRE / Ca / Cl / DBIL / GLC / IP / K / LDH / Na / PL / RALB / TBIL / TC / TG / TP / gamma-GTP: tissue Plasma
smiles,measurement,setting,value
CN1C(=O)CCS(=O)(=O)C1c1ccc(Cl)cc1 (configuration not stated) [CHLORMEZANONE],TERMINAL_BW,3 h,226.1 g
same,APTT,3 h,17 s
same,Bas,3 h,0%
same,Eos,3 h,0.8%
same,Fbg,3 h,315.6 mg/dL
same,Hb,3 h,13.7 g/dL
same,Ht,3 h,40.3%
same,Lym,3 h,80.4%
same,MCH,3 h,21.7 pg
same,MCHC,3 h,33.9%
same,MCV,3 h,64.1 fL
same,Mono,3 h,3%
same,Neu,3 h,15%
same,PT,3 h,13.1 s
same,Plat,3 h,122.7 x10_4/uL
same,RBC,3 h,629.8 x10_4/ul
same,Ret,3 h,7.8%
same,WBC,3 h,78.6 x10_2/uL
same,KIDNEY_L,3 h,1 g
same,KIDNEY_R,3 h,1 g
same,KIDNEY_TOTAL,3 h,2 g
same,LIVER,3 h,10.3 g
same,A/G,3 h,0.9
same,ALP,3 h,1820.8 IU/L
same,ALT,3 h,43.6 IU/L
same,AST,3 h,67.4 IU/L
same,BUN,3 h,10.2 mg/dL
same,CRE,3 h,0.1 mg/dL
same,Ca,3 h,11.5 mg/dL
same,Cl,3 h,106.2 meq/L
same,DBIL,3 h,0.036 mg/dL
same,GLC,3 h,182.2 mg/dL
same,IP,3 h,9.5 mg/dL
same,K,3 h,4.2 meq/L
same,LDH,3 h,58.2 IU/L
same,Na,3 h,140.2 meq/L
same,PL,3 h,145.2 mg/dL
same,RALB,3 h,2.7 g/dL
same,TBIL,3 h,0.044 mg/dL
same,TC,3 h,73.8 mg/dL
same,TG,3 h,108.2 mg/dL
same,TP,3 h,5.7 g/dL
same,gamma-GTP,3 h,1 IU/L
same,TERMINAL_BW,6 h,224.1 g
same,APTT,6 h,15.7 s
same,Bas,6 h,0%
same,Eos,6 h,1%
same,Fbg,6 h,310.2 mg/dL
same,Hb,6 h,13.7 g/dL
same,Ht,6 h,40.5%
same,Lym,6 h,75%
same,MCH,6 h,21.9 pg
same,MCHC,6 h,33.8%
same,MCV,6 h,65 fL
same,Mono,6 h,3.4%
same,Neu,6 h,19.8%
same,PT,6 h,13.2 s
same,Plat,6 h,113.5 x10_4/uL
same,RBC,6 h,622.8 x10_4/ul
same,Ret,6 h,7.8%
same,WBC,6 h,97 x10_2/uL
same,KIDNEY_L,6 h,0.9 g
same,KIDNEY_R,6 h,0.9 g
same,KIDNEY_TOTAL,6 h,1.8 g
same,LIVER,6 h,9.3 g
same,A/G,6 h,0.9
same,ALP,6 h,1407 IU/L
same,ALT,6 h,40.8 IU/L
same,AST,6 h,78 IU/L
same,BUN,6 h,10.4 mg/dL
same,CRE,6 h,0.2 mg/dL
same,Ca,6 h,11.6 mg/dL
same,Cl,6 h,107 meq/L
same,DBIL,6 h,0.02 mg/dL
same,GLC,6 h,180.2 mg/dL
same,IP,6 h,9.8 mg/dL
same,K,6 h,4.3 meq/L
same,LDH,6 h,57.8 IU/L
same,Na,6 h,141.8 meq/L
same,PL,6 h,145.6 mg/dL
same,RALB,6 h,2.7 g/dL
same,TBIL,6 h,0.04 mg/dL
same,TC,6 h,85.2 mg/dL
same,TG,6 h,54.4 mg/dL
same,TP,6 h,5.7 g/dL
same,gamma-GTP,6 h,1.4 IU/L
same,TERMINAL_BW,9 h,227.6 g
same,APTT,9 h,15.1 s
same,Bas,9 h,0%
same,Eos,9 h,1%
same,Fbg,9 h,331.4 mg/dL
same,Hb,9 h,13.4 g/dL
same,Ht,9 h,39.9%
same,Lym,9 h,74.4%
same,MCH,9 h,21.2 pg
same,MCHC,9 h,33.5%
same,MCV,9 h,63.1 fL
same,Mono,9 h,3.4%
same,Neu,9 h,20.6%
same,PT,9 h,13.2 s
same,Plat,9 h,116.8 x10_4/uL
same,RBC,9 h,631.4 x10_4/ul
same,Ret,9 h,7.5%
same,WBC,9 h,79.8 x10_2/uL
same,KIDNEY_L,9 h,0.9 g
same,KIDNEY_R,9 h,0.9 g
same,KIDNEY_TOTAL,9 h,1.8 g
same,LIVER,9 h,8.6 g
same,A/G,9 h,0.9
same,ALP,9 h,1793 IU/L
same,ALT,9 h,38.6 IU/L
same,AST,9 h,67.8 IU/L
same,BUN,9 h,10.8 mg/dL
same,CRE,9 h,0.2 mg/dL
same,Ca,9 h,11.1 mg/dL
same,Cl,9 h,105 meq/L
same,DBIL,9 h,0.022 mg/dL
same,GLC,9 h,192.6 mg/dL
same,IP,9 h,11.3 mg/dL
same,K,9 h,3.8 meq/L
same,LDH,9 h,51.4 IU/L
same,Na,9 h,143 meq/L
same,PL,9 h,132 mg/dL
same,RALB,9 h,2.6 g/dL
same,TBIL,9 h,0.044 mg/dL
same,TC,9 h,74.8 mg/dL
same,TG,9 h,52.6 mg/dL
same,TP,9 h,5.5 g/dL
same,gamma-GTP,9 h,1 IU/L
same,TERMINAL_BW,24 h,235.8 g
same,APTT,24 h,17.4 s
same,Bas,24 h,0.2%
same,Eos,24 h,0.8%
same,Fbg,24 h,283.8 mg/dL
same,Hb,24 h,13.4 g/dL
same,Ht,24 h,39.1%
same,Lym,24 h,78.8%
same,MCH,24 h,21.6 pg
same,MCHC,24 h,34.4%
same,MCV,24 h,62.9 fL
same,Mono,24 h,2.8%
same,Neu,24 h,17%
same,PT,24 h,13 s
same,Plat,24 h,115.7 x10_4/uL
same,RBC,24 h,621 x10_4/ul
same,Ret,24 h,7.2%
same,WBC,24 h,77.6 x10_2/uL
same,KIDNEY_L,24 h,1 g
same,KIDNEY_R,24 h,1 g
same,KIDNEY_TOTAL,24 h,2 g
same,LIVER,24 h,10.6 g
same,A/G,24 h,0.9
same,ALP,24 h,1848.2 IU/L
same,ALT,24 h,51.8 IU/L
same,AST,24 h,87 IU/L
same,BUN,24 h,16.4 mg/dL
same,CRE,24 h,0.2 mg/dL
same,Ca,24 h,11.5 mg/dL
same,Cl,24 h,105.2 meq/L
same,DBIL,24 h,0.022 mg/dL
same,GLC,24 h,193.4 mg/dL
same,IP,24 h,8.1 mg/dL
same,K,24 h,4.3 meq/L
same,LDH,24 h,69.4 IU/L
same,Na,24 h,142 meq/L
same,PL,24 h,141.6 mg/dL
same,RALB,24 h,2.7 g/dL
same,TBIL,24 h,0.028 mg/dL
same,TC,24 h,77.4 mg/dL
same,TG,24 h,91.8 mg/dL
same,TP,24 h,5.7 g/dL
same,gamma-GTP,24 h,1 IU/L
